The values below come from ChEMBL document CHEMBL4152299, “Synthesis, crystal structure and antimicrobial potential of some fluorinated chalcone-1,2,3-triazole conjugates” (2018).

Values after ≈ are worked out from the molar mass of the structure shown.

What all share (type): functional
In one assay the test system is Aspergillus niger. Description: Antifungal activity against Aspergillus niger MTCC 8189 after 120 hrs by serial dilution method. The note with it: MTCC 8189, 120 h.
A further assay concerns Escherichia coli. Description: Antibacterial activity against Escherichia coli MTCC 16521 after 24 hrs by serial dilution method. Particulars: MTCC 16521, 24 h.
Another assay has as its system Candida albicans. Briefly: Antifungal activity against Candida albicans MTCC 227 after 48 hrs by serial dilution method. Particulars: MTCC 227, 48 h.
For the next assay, the system named is Pseudomonas aeruginosa. Briefly: Antibacterial activity against Pseudomonas aeruginosa MTCC 424 after 24 hrs by serial dilution method. The note with it: MTCC 424, 24 h.
A further assay has as its system Bacillus subtilis. Briefly: Antibacterial activity against Bacillus subtilis MTCC 441 after 24 hrs by serial dilution method. Particulars: MTCC 441, 24 h.
Assay [1] deals with Staphylococcus epidermidis. Description: Antibacterial activity against Staphylococcus epidermidis MTCC 6880 after 24 hrs by serial dilution method. The note with it: MTCC 6880, 24 h.

Broadly, the MIC is the smallest concentration in the dilution series that meets the test's criterion for growth inhibition. A higher MIC goes with a less susceptible organism. `O=C(/C=C/c1c(OCc2cn(Cc3cccc(F)c3)nn2)ccc2ccccc12)c1ccc(Br)cc1`: the MIC against Aspergillus niger was determined as 23.2 µM (≈ 12.6 µg/mL); against Escherichia coli, 11.6 µM (≈ 6.29 µg/mL); against Candida albicans it was 23.2 µM (≈ 12.6 µg/mL); with Pseudomonas aeruginosa, 23.2 µM (≈ 12.6 µg/mL); against Bacillus subtilis, 11.6 µM (≈ 6.29 µg/mL); in assay [1], 23.2 µM (≈ 12.6 µg/mL).
In the case of `O=C(/C=C/c1c(OCc2cn(Cc3ccccc3)nn2)ccc2ccccc12)c1ccc([N+](=O)[O-])cc1`, the MIC in the assay on Aspergillus niger came out at 6.3 µM (≈ 3.09 µg/mL); against Escherichia coli, 12.8 µM (≈ 6.28 µg/mL); in the assay with Candida albicans it was 12.8 µM (≈ 6.28 µg/mL); in the assay with Pseudomonas aeruginosa it was 12.8 µM (≈ 6.28 µg/mL); against Bacillus subtilis, 6.3 µM (≈ 3.09 µg/mL); in assay [1], 6.3 µM (≈ 3.09 µg/mL).
For `COc1ccc(C(=O)/C=C/c2c(OCc3cn(-c4cccc(C(F)(F)F)c4)nn3)ccc3ccccc23)cc1`, the MIC stood at 11.8 µM (≈ 6.25 µg/mL) with Aspergillus niger; 11.8 µM (≈ 6.25 µg/mL) with Escherichia coli; 11.8 µM (≈ 6.25 µg/mL) against Candida albicans; 23.6 µM (≈ 12.5 µg/mL) with Pseudomonas aeruginosa; 23.6 µM (≈ 12.5 µg/mL) against Bacillus subtilis; 23.6 µM (≈ 12.5 µg/mL) in assay [1].
For the compound `O=C(/C=C/c1c(OCc2cn(Cc3ccccc3F)nn2)ccc2ccccc12)c1ccc([N+](=O)[O-])cc1`, the MIC in the assay on Aspergillus niger is 6.3 µM (≈ 3.2 µg/mL); with Escherichia coli, 6.3 µM (≈ 3.2 µg/mL); with Candida albicans it was 6.3 µM (≈ 3.2 µg/mL); against Pseudomonas aeruginosa, 24.8 µM (≈ 12.6 µg/mL); in the assay with Bacillus subtilis, 6.3 µM (≈ 3.2 µg/mL); in assay [1], 6.3 µM (≈ 3.2 µg/mL).
For `O=C(/C=C/c1c(OCc2cn(Cc3ccc(F)cc3)nn2)ccc2ccccc12)c1ccc([N+](=O)[O-])cc1`, the MIC stood at 3.2 µM (≈ 1.63 µg/mL) against Aspergillus niger; 3.2 µM (≈ 1.63 µg/mL) in the assay on Escherichia coli; 3.2 µM (≈ 1.63 µg/mL) against Candida albicans; 6.3 µM (≈ 3.2 µg/mL) in the assay on Pseudomonas aeruginosa; 6.3 µM (≈ 3.2 µg/mL) against Bacillus subtilis; 3.2 µM (≈ 1.63 µg/mL) in assay [1].
Regarding `COc1ccc(C(=O)/C=C/c2c(OCc3cn(Cc4cccc(F)c4)nn3)ccc3ccccc23)cc1`, the MIC with Aspergillus niger came to 12.6 µM (≈ 6.22 µg/mL); with Escherichia coli, 12.6 µM (≈ 6.22 µg/mL); against Candida albicans it was 12.6 µM (≈ 6.22 µg/mL); in the assay with Pseudomonas aeruginosa, 25.3 µM (≈ 12.5 µg/mL); with Bacillus subtilis, 25.3 µM (≈ 12.5 µg/mL); in assay [1], 25.3 µM (≈ 12.5 µg/mL).
`COc1ccc(C(=O)/C=C/c2c(OCc3cn(-c4ccc(F)cc4)nn3)ccc3ccccc23)cc1`: the MIC in the assay with Aspergillus niger is 52.2 µM (≈ 25 µg/mL); with Escherichia coli, 13 µM (≈ 6.23 µg/mL); in the assay on Candida albicans, 13 µM (≈ 6.23 µg/mL); in the assay on Pseudomonas aeruginosa, 26.1 µM (≈ 12.5 µg/mL); against Bacillus subtilis, 26.1 µM (≈ 12.5 µg/mL); in assay [1], 52.2 µM (≈ 25 µg/mL).
For the compound `COc1ccc(C(=O)/C=C/c2c(OCc3cn(Cc4ccccc4F)nn3)ccc3ccccc23)cc1`, the MIC against Aspergillus niger worked out at 25.3 µM (≈ 12.5 µg/mL); with Escherichia coli, 6.3 µM (≈ 3.11 µg/mL); in the assay on Candida albicans, 6.3 µM (≈ 3.11 µg/mL); against Pseudomonas aeruginosa, 12.6 µM (≈ 6.22 µg/mL); against Bacillus subtilis, 25.3 µM (≈ 12.5 µg/mL); in assay [1], 25.3 µM (≈ 12.5 µg/mL).
On to `C#CCOc1ccc2ccccc2c1/C=C/C(=O)c1ccc([N+](=O)[O-])cc1`, for which the MIC in the assay with Aspergillus niger came out at 70 µM (≈ 25 µg/mL); against Escherichia coli, 70 µM (≈ 25 µg/mL); against Candida albicans, 70 µM (≈ 25 µg/mL); in the assay with Pseudomonas aeruginosa, 70 µM (≈ 25 µg/mL); against Bacillus subtilis it was 140 µM (≈ 50 µg/mL); in assay [1], 70 µM (≈ 25 µg/mL).
With `O=C(/C=C/c1c(OCc2cn(-c3cccc(C(F)(F)F)c3)nn2)ccc2ccccc12)c1ccc([N+](=O)[O-])cc1`, the MIC in the assay with Aspergillus niger came out at 45.9 µM (≈ 25 µg/mL); in the assay with Escherichia coli, 23 µM (≈ 12.5 µg/mL); in the assay with Candida albicans, 11.5 µM (≈ 6.26 µg/mL); in the assay on Pseudomonas aeruginosa, 23 µM (≈ 12.5 µg/mL); with Bacillus subtilis, 45.9 µM (≈ 25 µg/mL); in assay [1], 23 µM (≈ 12.5 µg/mL).
Take `COc1ccc(C(=O)/C=C/c2c(OCc3cn(Cc4ccccc4)nn3)ccc3ccccc23)cc1`: the MIC in the assay on Aspergillus niger stood at 52.6 µM (≈ 25 µg/mL); in the assay on Escherichia coli it was 26.3 µM (≈ 12.5 µg/mL); in the assay on Candida albicans, 52.6 µM (≈ 25 µg/mL); in the assay on Pseudomonas aeruginosa it was 26.3 µM (≈ 12.5 µg/mL); against Bacillus subtilis, 26.3 µM (≈ 12.5 µg/mL); in assay [1], 52.6 µM (≈ 25 µg/mL).
Take `O=C(/C=C/c1c(OCc2cn(-c3ccc(F)cc3)nn2)ccc2ccccc12)c1ccc(Br)cc1`: the minimal inhibitory concentration (MIC) was 23.7 µM (≈ 12.5 µg/mL) against Aspergillus niger; 23.7 µM (≈ 12.5 µg/mL) with Escherichia coli; 47.4 µM (≈ 25 µg/mL) against Candida albicans; 47.4 µM (≈ 25 µg/mL) in the assay on Pseudomonas aeruginosa; 47.4 µM (≈ 25 µg/mL) against Bacillus subtilis; 47.4 µM (≈ 25 µg/mL) in assay [1].
Turning to `COc1ccc(C(=O)/C=C/c2c(OCc3cn(Cc4ccc(F)cc4)nn3)ccc3ccccc23)cc1`, the MIC in the assay on Aspergillus niger worked out at 12.6 µM (≈ 6.22 µg/mL); against Escherichia coli, 3.2 µM (≈ 1.58 µg/mL); against Candida albicans, 6.3 µM (≈ 3.11 µg/mL); against Pseudomonas aeruginosa it was 25.3 µM (≈ 12.5 µg/mL); against Bacillus subtilis, 25.3 µM (≈ 12.5 µg/mL); in assay [1], 25.3 µM (≈ 12.5 µg/mL).
As to `C#CCOc1ccc2ccccc2c1/C=C/C(=O)c1ccc(OC)cc1`, the MIC in the assay with Aspergillus niger worked out at 73.1 µM (≈ 25 µg/mL); against Escherichia coli, 73.1 µM (≈ 25 µg/mL); against Candida albicans, 73.1 µM (≈ 25 µg/mL); with Pseudomonas aeruginosa, 73.1 µM (≈ 25 µg/mL); with Bacillus subtilis, 73.1 µM (≈ 25 µg/mL); in assay [1] it was 146 µM (≈ 50.1 µg/mL).
Take `O=C(/C=C/c1c(OCc2cn(Cc3cccc(F)c3)nn2)ccc2ccccc12)c1ccc([N+](=O)[O-])cc1`: the MIC in the assay on Aspergillus niger is 6.3 µM (≈ 3.2 µg/mL); against Escherichia coli, 6.3 µM (≈ 3.2 µg/mL); with Candida albicans it was 6.3 µM (≈ 3.2 µg/mL); against Pseudomonas aeruginosa it was 6.3 µM (≈ 3.2 µg/mL); with Bacillus subtilis it was 12.6 µM (≈ 6.41 µg/mL); in assay [1] it was 6.3 µM (≈ 3.2 µg/mL).
As to `O=C(/C=C/c1c(OCc2cn(Cc3ccccc3)nn2)ccc2ccccc12)c1ccc(Br)cc1`, the MIC in the assay on Aspergillus niger was 11.9 µM (≈ 6.24 µg/mL); with Escherichia coli, 11.9 µM (≈ 6.24 µg/mL); with Candida albicans, 11.9 µM (≈ 6.24 µg/mL); against Pseudomonas aeruginosa, 11.9 µM (≈ 6.24 µg/mL); in the assay on Bacillus subtilis it was 23.9 µM (≈ 12.5 µg/mL); in assay [1], 11.9 µM (≈ 6.24 µg/mL).
Take `O=C(/C=C/c1c(OCc2cn(Cc3ccc(F)cc3)nn2)ccc2ccccc12)c1ccc(Br)cc1`: the MIC against Aspergillus niger was determined as 5.8 µM (≈ 3.15 µg/mL); in the assay with Escherichia coli it was 5.8 µM (≈ 3.15 µg/mL); in the assay with Candida albicans it was 5.8 µM (≈ 3.15 µg/mL); in the assay with Pseudomonas aeruginosa, 11.6 µM (≈ 6.29 µg/mL); in the assay with Bacillus subtilis, 5.8 µM (≈ 3.15 µg/mL); in assay [1] it was 5.8 µM (≈ 3.15 µg/mL).
Consider `O=C(/C=C/c1c(OCc2cn(-c3ccc(F)cc3)nn2)ccc2ccccc12)c1ccc([N+](=O)[O-])cc1`, for which the MIC was 12.6 µM (≈ 6.23 µg/mL) against Aspergillus niger; 25.3 µM (≈ 12.5 µg/mL) in the assay on Escherichia coli; 12.6 µM (≈ 6.23 µg/mL) against Candida albicans; 25.3 µM (≈ 12.5 µg/mL) with Pseudomonas aeruginosa; 12.6 µM (≈ 6.23 µg/mL) in the assay with Bacillus subtilis; 25.3 µM (≈ 12.5 µg/mL) in assay [1].
With `O=C(/C=C/c1c(OCc2cn(Cc3ccccc3F)nn2)ccc2ccccc12)c1ccc(Br)cc1`, the MIC in the assay on Aspergillus niger was found to be 23.2 µM (≈ 12.6 µg/mL); against Escherichia coli it was 11.6 µM (≈ 6.29 µg/mL); with Candida albicans, 23.2 µM (≈ 12.6 µg/mL); against Pseudomonas aeruginosa it was 23.2 µM (≈ 12.6 µg/mL); in the assay on Bacillus subtilis it was 11.6 µM (≈ 6.29 µg/mL); in assay [1], 11.6 µM (≈ 6.29 µg/mL).
Turning to `C#CCOc1ccc2ccccc2c1/C=C/C(=O)c1ccc(Br)cc1`, the MIC was determined as 127 µM (≈ 49.8 µg/mL) against Aspergillus niger; 63.7 µM (≈ 24.9 µg/mL) against Escherichia coli; 63.7 µM (≈ 24.9 µg/mL) in the assay on Candida albicans; 63.7 µM (≈ 24.9 µg/mL) with Pseudomonas aeruginosa; 63.7 µM (≈ 24.9 µg/mL) against Bacillus subtilis; 127 µM (≈ 49.8 µg/mL) in assay [1].
As to `OC(Cn1cncn1)(Cn1cncn1)c1ccc(F)cc1F` [FLUCONAZOLE], the results for the MIC against Aspergillus niger and against Candida albicans were 5.1 µM (≈ 1.56 µg/mL) and 10.2 µM (≈ 3.12 µg/mL), respectively.
As to `O=C(O)c1cn(C2CC2)c2cc(N3CCNCC3)c(F)cc2c1=O` [CIPROFLOXACIN], the MIC (in the assay on Escherichia coli; in the assay with Pseudomonas aeruginosa; against Bacillus subtilis; in assay [1]) was 4.7 µM (≈ 1.56 µg/mL) throughout.
Regarding `O=C(/C=C/c1c(OCc2cn(-c3cccc(C(F)(F)F)c3)nn2)ccc2ccccc12)c1ccc(Br)cc1`, the MIC amounted to 10.8 µM (≈ 6.25 µg/mL) in the assay with Aspergillus niger; 10.8 µM (≈ 6.25 µg/mL) against Escherichia coli; 21.7 µM (≈ 12.6 µg/mL) with Candida albicans; 10.8 µM (≈ 6.25 µg/mL) against Pseudomonas aeruginosa; 21.7 µM (≈ 12.6 µg/mL) with Bacillus subtilis; 21.7 µM (≈ 12.6 µg/mL) in assay [1].
